# Results from PubChem BioAssay AID1259407 (Chemical Carcinogenesis Research Information System (CCRIS), 2018).
# The source made the active and inactive calls. No rule for the calls is given here.
# Tested on: CCRIS mutagenicity, Ames/micronucleus/aberration tests
# Experiment: CCRIS mutagenicity studies
# [1] = Test System: AMES SALMONELLA TYPHIMURIUM, Strain/Indicator: TA98, Metabolic Activation: NONE, Method: STANDARD PLATE
# [2] = Test System: AMES SALMONELLA TYPHIMURIUM, Strain/Indicator: TA98, Metabolic Activation: RAT, LIVER, S-9, AROCLOR 1254, Method: STANDARD PLATE
# [3] = Test System: AMES SALMONELLA TYPHIMURIUM, Strain/Indicator: TA100, Metabolic Activation: NONE, Method: PREINCUBATION
# [4] = Test System: AMES SALMONELLA TYPHIMURIUM, Strain/Indicator: TA100, Metabolic Activation: NONE, Method: STANDARD PLATE
# [5] = Test System: AMES SALMONELLA TYPHIMURIUM, Strain/Indicator: TA100, Metabolic Activation: RAT, LIVER, S-9, AROCLOR 1254, Method: STANDARD PLATE
smiles,measurement,setting,value
F,mutagenic call,"End Point: IN VIVO MICRONUCLEUS, Test System: BONE MARROW POLYCHROMATIC ERYTHROCYTES, Species: MOUSE, Strain/Sex: DDY/MALE, Route: IP",inactive; negative
same,mutagenic call,"Test System: AMES SALMONELLA TYPHIMURIUM, Strain/Indicator: TA97A, Metabolic Activation: NONE, Method: STANDARD PLATE",inactive; negative
same,mutagenic call,"Test System: AMES SALMONELLA TYPHIMURIUM, Strain/Indicator: TA97A, Metabolic Activation: RAT, LIVER, S-9, AROCLOR 1254, Method: STANDARD PLATE",inactive; negative
same,mutagenic call,"Test System: AMES SALMONELLA TYPHIMURIUM, Strain/Indicator: TA98, Metabolic Activation: HAMSTER, LIVER, S-9, AROCLOR 1254 (10%), Method: PREINCUBATION",inactive; negative
same,mutagenic call,"Test System: AMES SALMONELLA TYPHIMURIUM, Strain/Indicator: TA98, Metabolic Activation: NONE, Method: FLUCTUATION TEST",inactive; negative
same,mutagenic call,"Test System: AMES SALMONELLA TYPHIMURIUM, Strain/Indicator: TA98, Metabolic Activation: NONE, Method: PREINCUBATION",inactive; negative
same,mutagenic call,[1],inactive; negative
same,mutagenic call,"Test System: AMES SALMONELLA TYPHIMURIUM, Strain/Indicator: TA98, Metabolic Activation: RAT, LIVER, S-9, AROCLOR 1254 (10%), Method: PREINCUBATION",inactive; negative
same,mutagenic call,[2],inactive; negative
same,mutagenic call,"Test System: AMES SALMONELLA TYPHIMURIUM, Strain/Indicator: TA98, Metabolic Activation: RAT, LIVER, S-9, AROCLOR, Method: PREINCUBATION",inactive; negative
same,mutagenic call,"Test System: AMES SALMONELLA TYPHIMURIUM, Strain/Indicator: TA98, Metabolic Activation: RAT, LIVER, S-9, PCB, Method: FLUCTUATION TEST",inactive; negative
same,mutagenic call,"Test System: AMES SALMONELLA TYPHIMURIUM, Strain/Indicator: TA98, Metabolic Activation: RAT, LIVER, S-9, PCB, Method: STANDARD PLATE",inactive; negative
same,mutagenic call,"Test System: AMES SALMONELLA TYPHIMURIUM, Strain/Indicator: TA98, Metabolic Activation: RAT, LIVER, S-9, PHENOBARBITAL, Method: STANDARD PLATE",inactive; negative
same,mutagenic call,"Test System: AMES SALMONELLA TYPHIMURIUM, Strain/Indicator: TA100, Metabolic Activation: HAMSTER, LIVER, S-9, AROCLOR 1254 (10%), Method: PREINCUBATION",inactive; negative
same,mutagenic call,"Test System: AMES SALMONELLA TYPHIMURIUM, Strain/Indicator: TA100, Metabolic Activation: NONE, Method: FLUCTUATION TEST",inactive; negative
same,mutagenic call,[3],inactive; negative
same,mutagenic call,[4],inactive; negative
same,mutagenic call,"Test System: AMES SALMONELLA TYPHIMURIUM, Strain/Indicator: TA100, Metabolic Activation: RAT, LIVER, S-9, AROCLOR 1254 (10%), Method: PREINCUBATION",inactive; negative
same,mutagenic call,[5],inactive; negative
same,mutagenic call,"Test System: AMES SALMONELLA TYPHIMURIUM, Strain/Indicator: TA100, Metabolic Activation: RAT, LIVER, S-9, AROCLOR, Method: PREINCUBATION",inactive; negative
same,mutagenic call,"Test System: AMES SALMONELLA TYPHIMURIUM, Strain/Indicator: TA100, Metabolic Activation: RAT, LIVER, S-9, PCB, Method: FLUCTUATION TEST",inactive; negative
same,mutagenic call,"Test System: AMES SALMONELLA TYPHIMURIUM, Strain/Indicator: TA100, Metabolic Activation: RAT, LIVER, S-9, PCB, Method: STANDARD PLATE",inactive; negative
same,mutagenic call,"Test System: AMES SALMONELLA TYPHIMURIUM, Strain/Indicator: TA100, Metabolic Activation: RAT, LIVER, S-9, PHENOBARBITAL, Method: STANDARD PLATE",inactive; negative
same,mutagenic call,"Test System: AMES SALMONELLA TYPHIMURIUM, Strain/Indicator: TA102, Metabolic Activation: NONE, Method: STANDARD PLATE",inactive; negative
same,mutagenic call,"Test System: AMES SALMONELLA TYPHIMURIUM, Strain/Indicator: TA102, Metabolic Activation: RAT, LIVER, S-9, AROCLOR 1254, Method: STANDARD PLATE",inactive; negative
same,mutagenic call,"Test System: AMES SALMONELLA TYPHIMURIUM, Strain/Indicator: TA1535, Metabolic Activation: HAMSTER, LIVER, S-9, AROCLOR 1254 (10%), Method: PREINCUBATION",inactive; negative
same,mutagenic call,"Test System: AMES SALMONELLA TYPHIMURIUM, Strain/Indicator: TA1535, Metabolic Activation: NONE, Method: PREINCUBATION",inactive; negative
same,mutagenic call,"Test System: AMES SALMONELLA TYPHIMURIUM, Strain/Indicator: TA1535, Metabolic Activation: NONE, Method: STANDARD PLATE",inactive; negative
same,mutagenic call,"Test System: AMES SALMONELLA TYPHIMURIUM, Strain/Indicator: TA1535, Metabolic Activation: RAT, LIVER, S-9, AROCLOR 1254 (10%), Method: PREINCUBATION",inactive; negative
same,mutagenic call,"Test System: AMES SALMONELLA TYPHIMURIUM, Strain/Indicator: TA1535, Metabolic Activation: RAT, LIVER, S-9, AROCLOR 1254, Method: STANDARD PLATE",inactive; negative
same,mutagenic call,"Test System: AMES SALMONELLA TYPHIMURIUM, Strain/Indicator: TA1535, Metabolic Activation: RAT, LIVER, S-9, AROCLOR, Method: PREINCUBATION",inactive; negative
same,mutagenic call,"Test System: AMES SALMONELLA TYPHIMURIUM, Strain/Indicator: TA1537, Metabolic Activation: HAMSTER, LIVER, S-9, AROCLOR 1254 (10%), Method: PREINCUBATION",inactive; negative
same,mutagenic call,"Test System: AMES SALMONELLA TYPHIMURIUM, Strain/Indicator: TA1537, Metabolic Activation: NONE, Method: PREINCUBATION",inactive; negative
same,mutagenic call,"Test System: AMES SALMONELLA TYPHIMURIUM, Strain/Indicator: TA1537, Metabolic Activation: RAT, LIVER, S-9, AROCLOR 1254 (10%), Method: PREINCUBATION",inactive; negative
same,mutagenic call,"Test System: AMES SALMONELLA TYPHIMURIUM, Strain/Indicator: TA1537, Metabolic Activation: RAT, LIVER, S-9, AROCLOR, Method: PREINCUBATION",inactive; negative
same,mutagenic call,"Test System: AMES SALMONELLA TYPHIMURIUM, Strain/Indicator: TA1538, Metabolic Activation: NONE, Method: PREINCUBATION",inactive; negative
same,mutagenic call,"Test System: AMES SALMONELLA TYPHIMURIUM, Strain/Indicator: TA1538, Metabolic Activation: RAT, LIVER, S-9, AROCLOR, Method: PREINCUBATION",inactive; negative
same,mutagenic call,"Test System: CHINESE HAMSTER OVARY, Strain/Indicator: CHO-K1-BH4 (HGPRT), Metabolic Activation: NONE, Method: SUSPENSION/PLATE",inactive; negative
same,mutagenic call,"Test System: CHINESE HAMSTER OVARY, Strain/Indicator: CHO-K1-BH4 (HGPRT), Metabolic Activation: RAT, LIVER, S-9, AROCLOR, Method: SUSPENSION/PLATE",inactive; negative
same,mutagenic call,"Test System: CHINESE HAMSTER V-79, Strain/Indicator: V-79 (HGPRT)/6-THIOGUANINE, Metabolic Activation: NONE",inactive; negative
same,mutagenic call,"Test System: CHINESE HAMSTER V-79, Strain/Indicator: V-79/6-THIOGUANINE, Metabolic Activation: NONE",inactive; negative
same,mutagenic call,"Test System: E.COLI, Strain/Indicator: WP2 UVRA, Metabolic Activation: NONE, Method: FLUCTUATION TEST",inactive; negative
same,mutagenic call,"Test System: E.COLI, Strain/Indicator: WP2 UVRA, Metabolic Activation: RAT, LIVER, S-9, PCB, Method: FLUCTUATION TEST",inactive; negative
same,mutagenic call,"Test System: MOUSE LYMPHOMA, Strain/Indicator: L5178Y (TK+/TK-), Metabolic Activation: NONE, Method: SUSPENSION/PLATE",active; positive
same,mutagenic call,"Test System: MOUSE LYMPHOMA, Strain/Indicator: L5178Y (TK+/TK-), Metabolic Activation: RAT, LIVER, S-9, AROCLOR 1254, Method: SUSPENSION/PLATE",active; positive
CC1(C(=O)NCc2ccccc2)CO1 (stereo not drawn),mutagenic call,"Test System: AMES SALMONELLA TYPHIMURIUM, Strain/Indicator: TA100, Metabolic Activation: MOUSE, LIVER, S-9, AROCLOR 1254, Method: STANDARD PLATE",active; positive
same,mutagenic call,[4],active; positive
Nc1nc(=O)n([C@@H]2O[C@H](CO)[C@@H](O)[C@H]2O)cc1O,mutagenic call,[3],inactive; negative
c1ccc2c(c1)c1cccc3c4ccccc4c4cccc2c4c13,mutagenic call,"Test System: HUMAN H1A1V2 CELLS, Strain/Indicator: TK LOCUS, Metabolic Activation: NONE, Method: SUSPENSION/PLATE",active; positive
CC1=C(/C=C/C(C)=C/C=C/C(C)=C/C=C/C=C(C)/C=C/C=C(C)/C=C/C2=C(C)C(=O)CCC2(C)C)C(C)(C)CCC1=O,mutagenic call,[1],inactive; negative
same,mutagenic call,[2],inactive; negative
same,mutagenic call,[4],inactive; negative
same,mutagenic call,[5],inactive; negative
